A word on the AC50: it is the concentration giving half of the maximal activity seen. Broadly, the IC50 is the concentration at which inhibition is half-maximal.

The values below come from ChEMBL document CHEMBL1201862, “PubChem BioAssay data set” (2004).

Assay [1] can be described thus: HEK293 cell viability, dose response, counter-screen for EBV LMP1 inhibitor project, dry powder, set 2 (AID 624374). The format is functional. Background: The purpose of a counterscreen is to sort out artefacts and off-target activity.
A short description of assay [2]: A2780 ovarian cancer cell cytotoxicity, dose response, cytotoxicity control, plate reader, dry powder samples (AID 743046). The class given is functional, cell-based.
The nature of assay [3]: cytotoxicity in OVCAR8 ovarian cancer cells, dose response, PAX8 project, cell-based, plate reader, dry powder samples (AID 743197). The format is functional. As to conditions: OVCAR-8.
Another assay deals with Paired box protein Pax-8 (Homo sapiens, UniProt Q06710). Briefly: inhibitors of PAX8-driven TPO luciferase reporter, dose response, RMG-I cells, cherry-pick (AID 687027).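 Note: luciferase reporter driven by Pax8 target thyroperoxidase promoter measured by SteadyGlo luminescence.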 The format is functional, cell-based.
The nature of assay [4]: inhibitors of CMV-promoter luciferase reporter, dose response, counter-screen for Pax8 inhibitor project, cell-based, HEK293, luminescence, dry powder (AID 743020). The class given is functional.
The nature of assay [5]: Late stage assay provider results from the probe development effort to identify inhibitors of the Plasmodium falciparum M18 Aspartyl Aminopeptidase (M18AAP): radiolabel-based cell-based dose response assay to identify compounds that inhibit P. falciparum growth in RBCs, Set 2.. The format is functional.
Assay [6] deals with Kappa-type opioid receptor (Homo sapiens, UniProt P41145). Briefly: OPRK1 antagonists, late-stage follow-up, cell-based, fluorescence, dose response (AID 652032). The format is functional.
A further assay addresses NS3 (Hepatitis C virus, UniProt A3EZJ3). Briefly: HCV NS3 helicase inhibitor potency, dose response, biochemical, fluorescence polarization, ChemBridge library (AID 743264). (Fluorescence polarisation rises when a labelled molecule tumbles more slowly, as on binding a larger partner.)
Assay [7] can be described thus: HepG2 cell cytotoxicity, dose response, cytotoxicity control, cherry-picks, set 5 (AID 1053118). The class given is functional, cell-based.
A short description of assay [8]: HEK293 cell cytotoxicity, dose response, cytotoxicity control, cherry-picks, set 5 (AID 1053117). The class given is functional, cell-based.
Assay [9] deals with T1, Beta Lactamase (Pseudomonas aeruginosa, UniProt Q932Y6). Briefly: VIM-2 inhibitor FRET-based artefact check, dose response, artefact control for selective VIM-2 inhibitor project, biochemical, FRET readout, CCF2 substrate (AID 1926).
Assay [10] addresses T2, Beta-lactamase (Pseudomonas aeruginosa, UniProt Q79MP6). Nature of the assay: […] counterscreen for selective VIM-2 inhibitors: dose response biochemical high throughput screening assay to identify inhibitors of IMP-1 metallo-beta-lactamase.
Assay [11] has as its target T1, Beta Lactamase. Briefly: VIM-2 metallo-beta-lactamase inhibitor potency, dose response, biochemical, epi-absorbance readout, selective inhibitors (AID 1919).
Assay [12] deals with Beta-lactamase (Salmonella choleraesuis (strain SC-B67), UniProt Q5J463). Nature of the assay: Epi-absorbance-based counterscreen for selective VIM-2 inhibitors: dose response biochemical high throughput screening assay to identify inhibitors of TEM-1 serine-beta-lactamase.
Assay [13] addresses T2, Beta-lactamase. Briefly: IMP-1 metallo-beta-lactamase inhibitors, dose response, selectivity assay for VIM-2 inhibitor project, biochemical, epi-absorbance (AID 1920).
Assay [14] deals with T3, Carboxy-terminal domain RNA polymerase II polypeptide A small phosphatase 1 (Homo sapiens, UniProt Q9GZU7).
T3 sequence (Q9GZU7 whole entry): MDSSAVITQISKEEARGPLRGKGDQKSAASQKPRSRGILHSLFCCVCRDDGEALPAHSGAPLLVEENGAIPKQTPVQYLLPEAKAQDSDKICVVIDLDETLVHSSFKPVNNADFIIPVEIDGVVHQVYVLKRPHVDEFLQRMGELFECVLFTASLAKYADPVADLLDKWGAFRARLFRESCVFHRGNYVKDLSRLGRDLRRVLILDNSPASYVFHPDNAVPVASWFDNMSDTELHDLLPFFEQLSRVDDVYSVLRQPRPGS
Nature of the assay: inhibitors of CTDSP1, concentration-response testing, biochemical assay, absorbance-based, actives from ultra-high-throughput screening (AID 540297). The class given is functional.

For another assay, the target named is Genome polyprotein (dengue virus type 2, UniProt P29990). Briefly: Dengue-2 NS5 methyltransferase inhibitors, primary screen, biochemical, confirmation dose response (AID 588689). The class given is functional.
Assay [15] is described as follows: A375 melanoma cell viability loss, dose response, counter-screen for MITF inhibitor project, CellTiter-Glo luminescence, dry powder, set 4 (AID 624364).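 Note: A375 melanoma cells are MITF independent so this is a counter screen.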 As to conditions: A-375. The class given is functional, cell-based.
The nature of assay [16]: A375 melanoma cell cytotoxicity, dose response, counter-screen for MITF inhibitor project, CellTiter-Glo luminescence, dry powder, set 2 (AID 624489).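 Note: actives are compounds lowering A375 viability meaning general cytotoxicity.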 The class given is functional, cell-based. The note with it: A-375.

Calls of active or inactive are those of the source. Some results are limits rather than exact numbers.

Chain of Paired box protein Pax-8 (Q06710 whole entry): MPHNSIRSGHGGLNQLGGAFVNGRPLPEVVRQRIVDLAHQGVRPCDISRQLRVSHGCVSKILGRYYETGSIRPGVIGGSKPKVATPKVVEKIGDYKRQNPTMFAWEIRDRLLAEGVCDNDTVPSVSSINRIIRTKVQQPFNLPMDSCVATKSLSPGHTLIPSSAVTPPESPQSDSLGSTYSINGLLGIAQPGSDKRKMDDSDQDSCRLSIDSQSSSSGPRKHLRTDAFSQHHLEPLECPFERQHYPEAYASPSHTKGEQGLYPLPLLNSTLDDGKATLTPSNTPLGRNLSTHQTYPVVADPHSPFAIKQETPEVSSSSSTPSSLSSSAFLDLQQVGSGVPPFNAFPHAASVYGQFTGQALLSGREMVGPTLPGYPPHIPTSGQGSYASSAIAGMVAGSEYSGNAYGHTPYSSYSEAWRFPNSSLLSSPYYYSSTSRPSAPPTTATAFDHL
T1 sequence (Q932Y6 whole entry): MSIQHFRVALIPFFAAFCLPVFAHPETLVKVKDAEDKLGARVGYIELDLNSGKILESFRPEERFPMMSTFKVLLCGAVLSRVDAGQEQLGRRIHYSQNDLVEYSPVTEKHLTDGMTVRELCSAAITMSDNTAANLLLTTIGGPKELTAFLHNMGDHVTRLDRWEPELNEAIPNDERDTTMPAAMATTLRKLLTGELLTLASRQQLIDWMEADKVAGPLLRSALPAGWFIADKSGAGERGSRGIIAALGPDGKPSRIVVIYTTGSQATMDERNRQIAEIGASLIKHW
T2 sequence (Q79MP6 whole entry): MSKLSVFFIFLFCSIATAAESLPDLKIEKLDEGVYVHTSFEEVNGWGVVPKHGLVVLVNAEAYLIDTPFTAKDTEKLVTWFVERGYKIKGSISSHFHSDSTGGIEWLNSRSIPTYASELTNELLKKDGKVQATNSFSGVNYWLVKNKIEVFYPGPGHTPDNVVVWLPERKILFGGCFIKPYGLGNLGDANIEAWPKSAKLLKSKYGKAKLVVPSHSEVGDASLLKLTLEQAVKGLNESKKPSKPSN
Chain of NS3 (A3EZJ3 whole entry): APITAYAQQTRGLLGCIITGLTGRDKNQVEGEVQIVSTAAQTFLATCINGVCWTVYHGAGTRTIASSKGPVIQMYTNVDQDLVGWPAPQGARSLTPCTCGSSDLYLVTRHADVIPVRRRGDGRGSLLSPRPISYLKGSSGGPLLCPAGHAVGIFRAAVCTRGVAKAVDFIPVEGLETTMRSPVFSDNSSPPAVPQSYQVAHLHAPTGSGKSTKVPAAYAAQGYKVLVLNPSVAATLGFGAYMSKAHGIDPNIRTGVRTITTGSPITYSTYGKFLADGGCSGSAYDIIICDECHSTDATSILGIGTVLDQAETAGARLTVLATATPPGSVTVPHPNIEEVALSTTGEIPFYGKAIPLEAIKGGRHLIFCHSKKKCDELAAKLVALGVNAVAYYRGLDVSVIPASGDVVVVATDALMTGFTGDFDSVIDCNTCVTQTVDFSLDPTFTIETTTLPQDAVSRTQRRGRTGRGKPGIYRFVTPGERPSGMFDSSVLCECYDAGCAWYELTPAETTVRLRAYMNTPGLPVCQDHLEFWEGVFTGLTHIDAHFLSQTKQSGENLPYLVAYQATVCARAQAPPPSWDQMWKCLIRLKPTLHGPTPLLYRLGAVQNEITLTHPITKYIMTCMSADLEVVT
Chain of Kappa-type opioid receptor (P41145 whole entry): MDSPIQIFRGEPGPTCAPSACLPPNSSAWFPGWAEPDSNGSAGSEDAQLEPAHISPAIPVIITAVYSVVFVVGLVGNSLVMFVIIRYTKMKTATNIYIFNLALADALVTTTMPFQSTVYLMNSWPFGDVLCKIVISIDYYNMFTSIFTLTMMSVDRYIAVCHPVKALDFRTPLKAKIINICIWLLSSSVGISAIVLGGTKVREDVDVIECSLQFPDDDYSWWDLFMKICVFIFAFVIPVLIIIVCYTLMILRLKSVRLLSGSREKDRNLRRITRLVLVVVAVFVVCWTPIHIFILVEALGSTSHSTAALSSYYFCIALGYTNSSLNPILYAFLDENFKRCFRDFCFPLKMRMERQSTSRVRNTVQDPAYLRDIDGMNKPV
Chain of Beta-lactamase (Salmonella choleraesuis (strain SC-B67), UniProt Q5J463) (Q5J463 whole entry): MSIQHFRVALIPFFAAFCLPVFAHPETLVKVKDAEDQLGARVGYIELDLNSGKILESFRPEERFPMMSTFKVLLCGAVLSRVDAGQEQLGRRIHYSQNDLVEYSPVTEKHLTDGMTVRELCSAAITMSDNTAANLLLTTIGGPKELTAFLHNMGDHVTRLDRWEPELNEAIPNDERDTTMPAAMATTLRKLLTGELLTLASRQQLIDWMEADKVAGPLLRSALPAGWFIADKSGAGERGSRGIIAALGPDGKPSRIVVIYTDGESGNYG
Chain of Genome polyprotein (P29990 2492-3391 limits assumed): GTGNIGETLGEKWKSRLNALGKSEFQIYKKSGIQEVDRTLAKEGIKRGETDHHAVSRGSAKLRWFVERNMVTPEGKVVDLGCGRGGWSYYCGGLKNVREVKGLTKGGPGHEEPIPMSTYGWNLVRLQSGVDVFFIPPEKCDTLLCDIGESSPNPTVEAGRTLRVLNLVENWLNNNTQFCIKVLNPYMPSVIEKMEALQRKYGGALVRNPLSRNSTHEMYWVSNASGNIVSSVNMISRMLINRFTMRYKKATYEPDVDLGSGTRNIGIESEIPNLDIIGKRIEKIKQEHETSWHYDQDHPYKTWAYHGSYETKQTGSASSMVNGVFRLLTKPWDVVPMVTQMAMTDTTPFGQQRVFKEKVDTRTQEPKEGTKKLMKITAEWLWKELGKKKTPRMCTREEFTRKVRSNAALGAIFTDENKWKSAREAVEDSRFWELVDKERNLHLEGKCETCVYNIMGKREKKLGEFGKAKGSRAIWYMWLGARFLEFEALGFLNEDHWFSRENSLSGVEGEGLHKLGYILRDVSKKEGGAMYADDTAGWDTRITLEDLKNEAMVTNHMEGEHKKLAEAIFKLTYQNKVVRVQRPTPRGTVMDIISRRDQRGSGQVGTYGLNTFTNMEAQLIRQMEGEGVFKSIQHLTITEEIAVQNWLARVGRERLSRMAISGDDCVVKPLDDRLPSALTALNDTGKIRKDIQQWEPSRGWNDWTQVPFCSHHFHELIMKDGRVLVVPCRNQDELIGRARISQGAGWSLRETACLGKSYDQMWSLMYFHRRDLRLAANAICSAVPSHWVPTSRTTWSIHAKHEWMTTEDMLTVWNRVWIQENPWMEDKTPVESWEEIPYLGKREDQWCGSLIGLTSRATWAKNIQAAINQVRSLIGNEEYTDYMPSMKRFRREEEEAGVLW

In the case of `Cc1noc(C)c1S(=O)(=O)Nc1ccc2c(c1)C(=O)N([C@H](C)CO)C[C@H](C)[C@H](CN(C)Cc1ccc(C(F)(F)F)cc1)OCCCC[C@@H](C)O2`, in [1], the AbsAC35 came to 79.09 µM.
In the case of `Cc1ccc(S(=O)(=O)Nc2ccc3c(c2)C(=O)N([C@H](C)CO)C[C@@H](C)[C@H](CN(C)S(=O)(=O)c2ccccc2)OCCCC[C@H](C)O3)cc1`, the AC50 was 29.5 µM (active) in [2], > 70 µM (inactive) in assay [3] and 8.05 µM (active) on Paired box protein Pax-8.
With `COc1ccc(S(=O)(=O)Nc2ccc3c(c2)CC(=O)N([C@H](C)CO)C[C@H](C)[C@@H](CN(C)Cc2ccc(C(F)(F)F)cc2)O3)cc1`, the AC50 in [4] is 49.3 µM (active); in assay [3], > 70 µM (inactive); at Paired box protein Pax-8, 19.3 µM (active).
In the case of `Oc1ccc(CCNC(c2ccccc2)c2ccccc2)cc1O`, the IC50 in assay [5] was 17 µM (inactive).
Consider `COC(=O)c1cc(Br)cnc1N1CCC(N)CC1`, for which the IC50 in assay [6] is 21.8 µM (inactive).
Consider `Cc1c(C(=O)O)cccc1-n1c(C)ccc1C`, for which the IC50 on NS3 is 34.5 µM (inactive).
On to `CO[C@@H]1CN(C)C(=O)c2cc(NC(=O)Nc3cc(Cl)cc(Cl)c3)ccc2OC[C@@H](C)NC[C@@H]1C`, for which the AC50 is 23.8 µM (active) in assay [7] and 36.7 µM (active) in assay [8].
On to `Oc1c(Br)cc(/C=N/n2c(S)nnc2-c2ccccc2)cc1Br`, for which the IC50 was 6.1 µM (active) at Beta Lactamase [9]; > 19.9 µM (inactive) on Beta-lactamase [10]; 19.3 µM (inactive) at Beta Lactamase [11]; > 59.6 µM (inactive) at Beta-lactamase [12]; > 59.6 µM (inactive) at Beta-lactamase [13]; 1.54 µM (active) in assay [14]. At Genome polyprotein, the IC50 is 27.5 µM (active).
For `COc1ccc(C(=O)NC2=C(c3ccc(OC)cc3)C(=O)c3ccccc3C2=O)cc1`, the AC50 in assay [15] was 20.1 µM (active); in [16], 13.3 µM (active).
